We go through one molecule from paper PMC5718519, “Crystal structures of ternary complexes of archaeal B-family DNA polymerases” (PLoS ONE, 2017).

This assay deals with T1, KOD DNA pol (exo-) (Thermococcus kodakarensis, UniProt P77933, D141A/E143A).
T1 construct: exonuclease-deficient mature polymerase (inteins absent); codon-optimized, pET24a, E. coli BL21(DE3); heparin and Superdex 75; no tag mentioned
Description: X-ray crystal structure of closed ternary complex. Type of assay: binding. The following applies: with ddC-terminated primer/template DNA; Mg2+ (site A) and two Mn2+ (sites B, C); polymerase active site; pH 7.5.

Regarding `Nc1ncnc2c1ncn2[C@H]1C[C@H](O)[C@@H](COP(=O)(O)OP(=O)(O)OP(=O)(O)O)O1` [dATP, 2’-deoxy-adenosine-5’-triphosphate], the “X-ray crystal structure of closed ternary complex” value is recorded as “KOD DNA pol binds the incoming dATP in a pocket formed by the palm”.
